# Experimental data taken from patent publication US20230150929A1, “SELECTIVE NON-CYCLIC NUCLEOTIDE ACTIVATORS FOR THE CAMP SENSOR EPAC1” (The Board of Regents of The University of Texas System, priority 2020, published 2023).
# Columns and labels:
# PKA = PKA activation (VASP phosphorylation, western blot) in U2OS-EPAC1 cells; format: cell-based; details: 100 µM test compound, FIG. 5
# Description: FIG. 5. PKA activation results of representative newly discovered EPAC1 agonists. U2OS cells stably transfected with EPAC1 were treated with 100 µM of test compounds, cyclic nucleotide EPAC1 agonist 2 or 10 µM of forskolin and rolipram (F/R), cyclic AMP elevating agents, as a positive control. Active, phosphorylated VASP (P-VASP) was visualized using a phospho-specific, anti-VASP antibody. None of the test compounds promoted VASP phosphorylation in cells.
# PKA and GPCR Selectivity. To investigate the EPAC selectivity of these EPAC agonists, compounds 25g, 25n and 25q were selected for further PKA activation studies, and the results are shown in FIG. 5. PKA activation was assessed by monitoring phosphorylation state of a downstream PKA effector, vasodilator-stimulated phosphoprotein (VASP).
# (§1) SDS-PAGE and Western Blotting. Samples were prepared by mixing equal volumes of cell lysate and 2x SDS sample loading buffer and denaturing for 5 min at 95° C., unless indicated otherwise. Protein samples were separated by SDS-PAGE on 10% (v/v) polyacrylamide gels, for EPAC1 and VASP, or on 12.5% (v/v), for Rap1, and then transferred to nitrocellulose membranes. Membranes were then blocked for 1 h at room temperature in 5% (w/v) non-fat dry milk or 5% (w/v) BSA in Tris-buffered saline containing 0.1% (v/v) Tween 20, followed by an overnight incubation with primary antibody diluted in blocking buffer at 4° C. Subsequently, the membranes were incubated with appropriate horseradish peroxidase-conjugated secondary antibodies for 1 h at room temperature. For signal detection the SuperSignal West Pico PLUS Chemiluminescent Substrate (Thermo Scientific) was used. Images were acquired using the Fusion FX7 camera platform (Vilber). Densitometry was performed with ImageJ.
# EPAC1-CNBD = biological target: T1, EPAC1-CNBD (Homo sapiens, UniProt O95398); assay: 8-NBD-cAMP competition binding assay, EPAC1-CNBD; details: for EPAC1 binding potency / affinity in words: SAR comment on RFI, mostly relative to 3 or 9a; for RFI (%) (relative fluorescence intensity), Table 4: compound 10 µM, EPAC1-CNBD 0.8 µM, 8-NBD-cAMP 62.5 nM, mean ± SEM, lower RFI = stronger binding; for IC50: read-out: IC50 for the EPAC1-CNBD, dose-response, FIG. 3; for IC50 values as EPAC1 binders (in words): summary statement
# T1 sequence (O95398 169-318 isoform O95398-3): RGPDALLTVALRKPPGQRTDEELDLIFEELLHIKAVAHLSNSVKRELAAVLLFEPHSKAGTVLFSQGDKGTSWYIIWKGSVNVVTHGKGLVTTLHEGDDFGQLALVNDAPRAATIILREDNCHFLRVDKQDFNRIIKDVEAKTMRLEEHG
# EPAC1 = biological target: T2, EPAC1 (Homo sapiens, UniProt O95398); assay: Active Rap1 pull-down in U2OS cells stably transfected with EPAC1; format: cell-based; design: expressed in transfected cells; host or cells: U2OS cells (from Professor Holger Rehmann, University of Utrecht); details: for Rap1 activation in EPAC1 cells: U2OS-EPAC1, 100 µM compound, 10 min, FIG. 7; for activation of EPAC1 by compound 2 (Rap1-GTP levels): U2OS-EPAC1 cells, in the presence of EPAC1 agonist 2 (007), FIG. 4
# T2 sequence (O95398 1-923): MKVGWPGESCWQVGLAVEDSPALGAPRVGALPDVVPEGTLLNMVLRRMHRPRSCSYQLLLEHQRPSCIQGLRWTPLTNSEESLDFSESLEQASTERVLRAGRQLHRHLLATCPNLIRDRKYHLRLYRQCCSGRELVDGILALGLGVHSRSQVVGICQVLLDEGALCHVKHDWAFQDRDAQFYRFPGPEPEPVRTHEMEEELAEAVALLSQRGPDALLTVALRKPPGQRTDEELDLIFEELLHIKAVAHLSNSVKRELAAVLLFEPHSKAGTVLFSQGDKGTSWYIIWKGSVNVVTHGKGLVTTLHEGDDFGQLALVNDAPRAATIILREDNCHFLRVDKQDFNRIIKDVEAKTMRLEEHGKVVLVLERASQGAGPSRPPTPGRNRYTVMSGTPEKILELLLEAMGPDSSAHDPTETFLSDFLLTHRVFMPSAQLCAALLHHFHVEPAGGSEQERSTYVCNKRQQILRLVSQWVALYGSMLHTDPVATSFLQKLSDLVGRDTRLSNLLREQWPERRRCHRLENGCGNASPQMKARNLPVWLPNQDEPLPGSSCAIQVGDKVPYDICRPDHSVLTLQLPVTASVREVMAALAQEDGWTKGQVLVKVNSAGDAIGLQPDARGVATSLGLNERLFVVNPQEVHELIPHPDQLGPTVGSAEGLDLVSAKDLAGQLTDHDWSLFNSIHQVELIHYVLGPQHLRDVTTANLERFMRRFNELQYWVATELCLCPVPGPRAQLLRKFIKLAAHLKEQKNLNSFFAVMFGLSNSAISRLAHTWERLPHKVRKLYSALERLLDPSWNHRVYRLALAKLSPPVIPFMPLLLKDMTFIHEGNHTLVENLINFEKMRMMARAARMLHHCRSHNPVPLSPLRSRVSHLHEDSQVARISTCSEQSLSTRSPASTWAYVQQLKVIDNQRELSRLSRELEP
# Description: Series Expansion and EPAC1 vs EPAC2 Selectivity. GEF assay was used to further screen all newly synthesis analogues at 10 µM, to identify additional activating compounds to expand the series of EPAC1 agonists (FIG. 6). […] Having now identified an expanded exemplary series of compounds as potential EPAC1 activators the ability of 25e, 25f, 25g, 25n and 25u to activate EPAC1 and EPAC2 in cellular Rap1 activation assays (FIG. 7) were compared. For these U2OS cells transfected with either EPAC1 or EPAC2 (FIG. 7) was used. […] Densitometry was carried out on all immunoblots and the ratio of EPAC1 to EPAC2 activation was calculated and presented in a bar graph in FIG. 8.
# Active Rap1 Pull-down. U2OS cells (from Professor Holger Rehmann, University of Utrecht) stably transfected with EPAC1 or EPAC2 were cultured in 6-well plates in DMEM, high glucose, supplemented with 10% (v/v) FBS, 1% (v/v) GlutaMAX, 1% (v/v) Penicillin-Streptomycin and 2 mg/l puromycin (to ensure selection of stable transfectants). 80% confluent cells were starved in culture medium with reduced FBS concentration (0.5 %) for 16 h and then stimulated for 10 min with either vehicle, 100 µM of studied compounds, or 50 µM of 2 in case of U2OS-EPAC1 or 100 µM of compound 4 for U2OS-EPAC2. Cells were then rinsed with ice-cold PBS and lysed in 0.5 ml cell lysis buffer (Cell Signaling Technologies) supplemented with 10 mM MgCl2 and 1 mM PMSF, followed by clearing the lysates by centrifugation. Cell lysates were incubated for 1 h (4° C., gentle agitation) with 40 µg GST-RalGDS-RBD immobilized on Glutathione Sepharose 4B (GE Healthcare) to selectively capture GTP-bound Rap1. Later on, the glutathione resin was separated from supernatant by centrifugation, washed three times with cell lysis buffer, then resuspended in 2x SDS sample loading buffer and denatured for 5 min at 95° C.
# as §1
EPAC1 binding potency / affinity in words (EPAC1-CNBD),"RFI (%) (relative fluorescence intensity), Table 4 (EPAC1-CNBD)",IC50 (EPAC1-CNBD) [nM],IC50 values as EPAC1 binders (in words) (EPAC1-CNBD),Rap1 activation in EPAC1 cells (EPAC1),activation of EPAC1 by compound 2 (Rap1-GTP levels) (EPAC1),Structure (SMILES),PKA activation (VASP phosphorylation) (PKA)
significantly enhanced binding potency,14 ± 3,2200,low micromolar to sub-micromolar,activate EPAC1 in cells,,"COc1ccc2ccc(OCC(=O)NS(=O)(=O)c3ccc4ccccc4c3)cc2c1 [Compound 25q, 2-((7-Methoxynaphthalen-2-yl)oxy)-N-(naphthalen-2-ylsulfonyl)acetamide]",did not induce any PKA activation
much more potent,23 ± 4,4800,low micromolar to sub-micromolar,activate EPAC1 in cells,enhanced,"COc1ccc(S(=O)(=O)NC(=O)COc2ccc3ccccc3c2)c(OC)c1 [Compound 25g, N-((2,4-Dimethoxyphenyl)sulfonyl)-2-(naphthalen-2-yloxy)acetamide]",did not induce any PKA activation
,7 ± 1,900,low micromolar to sub-micromolar,activate EPAC1 in cells,enhanced,"COc1ccc2ccc(OCC(=O)NS(=O)(=O)c3ccc(N)cc3OC)cc2c1 [Compound 25n, N-((4-Amino-2-methoxyphenyl)sulfonyl)-2-((7-methoxynaphthalen-2-yl)oxy)acetamide]",did not induce any PKA activation
